Laboratory results taken from ChEMBL document CHEMBL5214978, “Identification of 1,4-Benzodiazepine-2,5-dione Derivatives as Potential Protein Synthesis Inhibitors with Highly Potent Anticancer Activity” (J Med Chem, 2022).
The source made the active and inactive calls. No cut-off for these calls is given here.

What was measured:
[1] = system: A549; experiment: Anticancer activity against human A549 cells assessed as cell growth inhibition measured after 48 hrs by SRB assay; format: functional
[2] = system: HCT-116; experiment: Anticancer activity against human HCT-116 cells assessed as cell growth inhibition measured after 48 hrs by SRB assay; format: functional
[3] = system: SF-295; experiment: Anticancer activity against human SF-295 cells assessed as cell growth inhibition measured after 48 hrs by SRB assay; format: functional
[4] = system: LOX IMVI; experiment: Anticancer activity against human LOX IMVI cells assessed as cell growth inhibition measured after 48 hrs by SRB assay; format: functional
[5] = system: 786-0; experiment: Anticancer activity against human 786-0 cells assessed as cell growth inhibition measured after 48 hrs by SRB assay; format: functional
[6] = system: Panel NCI-60 (60 carcinoma cell lines); experiment: Anticancer activity against human Panel NCI-60 (60 carcinoma cell lines) line assessed as cell growth inhibition measured after 48 hrs by SRB assay; format: functional
[7] = Inhibition of tubulin polymerization […] assessed as microtubule assembly measured every 1 min for 60 mins by fluorimeter analysis
[8] = system: NCI-H460; experiment: Induction of cell cycle arrest in human NCI-H460 cells assessed as accumulation at S phase at 20 nM incubated for 48 hrs by PI staining based flow cytometric analysis; format: functional
[9] = system: NCI-H522; experiment: Induction of apoptosis in human NCI-H522 cells assessed as viable cells at 0.05 uM incubated for 48 hrs by Annexin V-FITC/PI staining based flow cytometric analysis (reference value: 82.4%); format: functional; conditions: read-out: Activity
[10] = system: NCI-H522; experiment: Induction of apoptosis in human NCI-H522 cells assessed as early apoptotic cells at 0.05 uM incubated for 48 hrs by Annexin V-FITC/PI staining based flow cytometric analysis (Rvb =7.01 %); format: functional
[11] = system: NCI-H522; experiment: Induction of apoptosis in human NCI-H522 cells assessed as late apoptotic cells at 0.05 uM incubated for 48 hrs by Annexin V-FITC/PI staining based flow cytometric analysis (Rvb =9.14 %); format: functional
[12] = system: NCI-H522; experiment: Induction of apoptosis in human NCI-H522 cells assessed as necrotic cells at 0.05 uM incubated for 48 hrs by Annexin V-FITC/PI staining based flow cytometric analysis (Rvb =0.64 %); format: functional
[13] = system: NCI-H522; experiment: Induction of apoptosis in human NCI-H522 cells assessed as viable cells at 0.5 uM incubated for 48 hrs by Annexin V-FITC/PI staining based flow cytometric analysis (reference value: 82.4%); format: functional; conditions: read-out: Activity
[14] = system: NCI-H522; experiment: Induction of apoptosis in human NCI-H522 cells assessed as early apoptotic cells at 0.5 uM incubated for 48 hrs by Annexin V-FITC/PI staining based flow cytometric analysis (Rvb =7.01 %); format: functional
[15] = system: NCI-H522; experiment: Induction of apoptosis in human NCI-H522 cells assessed as late apoptotic cells at 0.5 uM incubated for 48 hrs by Annexin V-FITC/PI staining based flow cytometric analysis (Rvb =9.14 %); format: functional
[16] = system: NCI-H522; experiment: Induction of apoptosis in human NCI-H522 cells assessed as necrotic cells at 0.5 uM incubated for 48 hrs by Annexin V-FITC/PI staining based flow cytometric analysis (Rvb =0.64 %); format: functional
[17] = system: NCI-H522; experiment: Induction of apoptosis in human NCI-H522 cells assessed as viable cells at 5 uM incubated for 48 hrs by Annexin V-FITC/PI staining based flow cytometric analysis (reference value: 82.4%); format: functional; conditions: read-out: Activity
[18] = system: NCI-H522; experiment: Induction of apoptosis in human NCI-H522 cells assessed as early apoptotic cells at 5 uM incubated for 48 hrs by Annexin V-FITC/PI staining based flow cytometric analysis (Rvb =7.01 %); format: functional
[19] = system: NCI-H522; experiment: Induction of apoptosis in human NCI-H522 cells assessed as late apoptotic cells at 5 uM incubated for 48 hrs by Annexin V-FITC/PI staining based flow cytometric analysis (Rvb =9.14 %); format: functional
[20] = system: NCI-H522; experiment: Induction of apoptosis in human NCI-H522 cells assessed as necrotic cells at 5 uM incubated for 48 hrs by Annexin V-FITC/PI staining based flow cytometric analysis (Rvb =0.64 %); format: functional
[21] = system: NCI-H522; experiment: Induction of apoptosis in human NCI-H522 cells assessed as apoptotic rate at 0.05 to 5 uM incubated for 48 hrs by AnnexinV-FITC/PI staining based flow cytometric analysis; format: functional; conditions: dose 0.05-5 µM
[22] = system: NCI-H460; experiment: Induction of apoptosis in human NCI-H460 cells assessed as effect on cleavage of PARP at 1 uM measured for 48 hrs by western blot analysis; format: functional, cell-based
[23] = system: NCI-H460; experiment: Induction of apoptosis in human NCI-H460 cells assessed as effect on caspase 3 level at 1 uM measured for 48 hrs by western blot analysis; format: functional, cell-based
[24] = system: NCI-H460; experiment: Induction of apoptosis in human NCI-H460 cells assessed as effect on caspase 7 level at 1 uM measured for 48 hrs by western blot analysis; format: functional, cell-based
[25] = system: NCI-H460; experiment: Induction of apoptosis in human NCI-H460 cells assessed as effect on caspase 9 level at 1 uM measured for 48 hrs by western blot analysis; format: functional, cell-based
[26] = system: NCI-H522; experiment: Induction of mitochondrial membrane potential depolarization in human NCI-H522 cells measured after 48 hrs by JC-1 staining based flow cytometry analysis; format: functional, cell-based; conditions: dose 0.05-5 µM, DDE = dose-dependent effect
[27] = system: NCI-H460; experiment: Downregulation of c-Myc protein expression level in human NCI-H460 cells at 20 nM incubated for 0.5 to 6 hrs by western blot analysis; format: functional, cell-based; conditions: time 0.5-6 hrs
[28] = system: NCI-H460; experiment: Inhibition of polyribosome in human NCI-H460 cells assessed as increase in 80S ribosome at 200 nM incubated for 1 hr in presence of cycloheximide; format: functional, cell-based
[29] = Cmax in BALB/c nude mouse at 1 mg/kg, iv by LC-MS/MS analysis; format: ADME, organism-based; set-up: dose 1 mg/kg, route iv; conditions: in vivo
[30] = Cmax in BALB/c nude mouse at 10 mg/kg, po by LC-MS/MS analysis; format: ADME, organism-based; set-up: dose 10 mg/kg, route po; conditions: in vivo
[31] = AUC (0 to t) in BALB/c nude mouse at 1 mg/kg, iv by LC-MS/MS analysis; format: ADME, organism-based; set-up: dose 1 mg/kg, route iv; conditions: in vivo
[32] = AUC (0 to t) in BALB/c nude mouse at 10 mg/kg, po by LC-MS/MS analysis; format: ADME, organism-based; set-up: dose 10 mg/kg, route po; conditions: in vivo
[33] = Half life in BALB/c nude mouse at 10 mg/kg, po by LC-MS/MS analysis; format: ADME, organism-based; conditions: in vivo
[34] = Oral bioavailability in BALB/c nude mouse at 10 mg/kg by LC-MS/MS analysis; format: ADME, organism-based; conditions: in vivo
[35] = system: NCI-H522; experiment: Antitumor activity against human NCI-H522 cells xenografted in iv dosed BALB/c nude mouse assessed as inhibition of tumor growth administered every 4 days for 21 days; format: functional, organism-based; conditions: dose 12.5-50 mg/kg, time 4.0 day, DDE = dose-dependent effect
[36] = system: NCI-H522; experiment: Antitumor activity against human NCI-H522 cells xenografted in BALB/c nude mouse assessed as reduction of tumor weight at 50 mg/kg, iv administered every 4 days for 21 days; format: functional; set-up: scale not given: the % may be the effect or the level left; conditions: time 4 day
[37] = system: NCI-H522; experiment: Antitumor activity against human NCI-H522 cells xenografted in BALB/c nude mouse assessed as reduction of tumor growth by measuring T/C ratio at 50 mg/kg, iv administered every 4 days for 21 days; format: functional; conditions: time 4 day
[38] = Toxicity in BALB/c nude mouse xenografted with human NCI-H522 cells assessed as change in body weight at 12.5 to 50 mg/kg, iv administered every 4 days for 21 days; format: organism-based; conditions: in vivo, 96 h, dose 12.5-50 mg/kg, time 4 day

For `CCN(CC)C(=O)C[C@H]1C(=O)Nc2cc(NC(=O)c3cc(OC)c(OC)c(OC)c3Br)c(Oc3cc(C)cc(C)c3)cc2C(=O)N1C`, which GI50 [1] is on record?
Its GI50 is under 5 nM.

What about the GI50 [2] of the same compound?
Its GI50 is under 5 nM.

What about the GI50 [3] of the same compound?
Its GI50 is under 5 nM.

And the GI50 [4]?
Its GI50 is under 5 nM.

What about the GI50 [5] of the same compound?
Its GI50 is under 5 nM.

What about the GI50 [6] of the same compound?
Its GI50 is under 5 nM.

And the IC50 [7]?
Its IC50 is 10100 nM.

And the Activity [8]?
The Activity was “Active”.

And the viability at 0.05 µM [9]?
The viability at 0.05 µM was 65.8%.

And the Activity [10]?
Its Activity is 7.75%.

And the Activity [11]?
Its Activity is 25.2%.

And the Activity [12]?
Its Activity is 1.25%.

What about the viability at 0.5 µM [13] of the same compound?
Its viability at 0.5 µM is 28.4%.

What about the Activity [14] of the same compound?
The Activity was 14.5%.

What about the Activity [15] of the same compound?
The Activity was 52.4%.

And the Activity [16]?
The Activity was 4.6%.

And the viability at 5 µM [17]?
The viability at 5 µM was 13.5%.

And the Activity [18]?
Its Activity is 19.8%.

What about the Activity [19] of the same compound?
The Activity was 59%.

What about the Activity [20] of the same compound?
The Activity was 7.64%.

What about the Activity [21] of the same compound?
The Activity was 35%.

And the Activity [22]?
The Activity was “Active”.

What about the Activity [23] of the same compound?
Its Activity is “Active”.

And the Activity [24]?
Its Activity is “Active”.

And the Activity [25]?
Its Activity is “Active”.

And the Activity [26]?
Its Activity is “Dde”.

What about the Activity [27] of the same compound?
The Activity was “Active”.

And the Activity [28]?
The Activity was “Active”.

What about the Cmax [29] of the same compound?
The Cmax was 1.54 µg/mL.

And the Cmax [30]?
The Cmax was 0.0426 µg/mL.

And the AUC(0-t) [31]?
Its AUC(0-t) is 0.439 µg·h/mL.

What about the AUC(0-t) [32] of the same compound?
The AUC(0-t) was 0.0665 µg·h/mL.

And the half-life [33]?
Its half-life is 1.4 h.

What about the bioavailability [34] of the same compound?
The bioavailability was 1.53%.

What about the Activity [35] of the same compound?
The Activity was “Dde”.

What about the Activity [36] of the same compound?
Its Activity is 88.7%.

What about the T/C [37] of the same compound?
The T/C was 13.6%.

What about the Activity [38] of the same compound?
The Activity was under 10%.
